In ChEMBL document CHEMBL3779777, “Novel amalgamation of phthalazine-quinolines as biofilm inhibitors: One-pot synthesis, biological evaluation and in silico ADME prediction with favorable metabolic fate” (Bioorg Med Chem Lett, 2016):
Values after ≈ are worked out from the molar mass of the structure shown. Active and inactive are the calls of the source. No cut-off for these calls is given here.

How the values were obtained:
Pseudomonas aeruginosa [1] = experiment: Antibacterial activity against Pseudomonas aeruginosa NCIM-2036 by standard agar method; format: functional
Bacillus subtilis = experiment: Antibacterial activity against Bacillus subtilis NCIM-2063 by standard agar method; format: functional
Staphylococcus aureus = experiment: Antibacterial activity against Staphylococcus aureus NCIM-2901 by standard agar method; format: functional
Candida albicans [2] = experiment: Antifungal activity against Candida albicans NCIM-3471 by standard agar method; format: functional
Candida albicans [3] = experiment: Antibiofilm activity against Candida albicans after 24 hrs by MTT assay; format: functional, organism-based
Pseudomonas aeruginosa [4] = experiment: Antibiofilm activity against Pseudomonas aeruginosa PAO1 after 18 hrs by crystal violet staining based spectroscopy; format: functional, organism-based; settings: PAO1, 18 h
Pseudomonas aeruginosa [5] = experiment: Antibiofilm activity against Pseudomonas aeruginosa assessed as inhibition of biofilm formation after […] by Field emission scanning electron microscopy; format: functional, organism-based
Candida albicans [6] = experiment: Antibiofilm activity against Candida albicans assessed as inhibition of biofilm formation after […] by Field emission scanning electron microscopy; format: functional, organism-based

SMILES: COc1ccc2cc(C3C4=C(CC(C)(C)CC4=O)n4c(=O)c5ccccc5c(=O)n43)c3nnnn3c2c1 (stereo not drawn)
- MIC (Pseudomonas aeruginosa [1]): 250 µg/mL (≈ 506 µM)
- MIC (Bacillus subtilis): 168 µg/mL (≈ 340 µM)
- MIC (Staphylococcus aureus): 195 µg/mL (≈ 394 µM)
- MIC (Candida albicans [2]): 220 µg/mL (≈ 445 µM)
- IC50 (Candida albicans [3]): 43.5 µM
- IC50 (Pseudomonas aeruginosa [4]): 72 µM

SMILES: Cc1ccc2cc(C3C4=C(CC(C)(C)CC4=O)n4c(=O)c5ccccc5c(=O)n43)c(Cl)nc2c1 (stereo not drawn)
- MIC (Pseudomonas aeruginosa [1]): 185 µg/mL (≈ 392 µM)
- MIC (Bacillus subtilis): 87.5 µg/mL (≈ 185 µM)
- MIC (Staphylococcus aureus): 70 µg/mL (≈ 148 µM)
- MIC (Candida albicans [2]): 112 µg/mL (≈ 238 µM)
- IC50 (Candida albicans [3]): 49.5 µM
- IC50 (Pseudomonas aeruginosa [4]): 51 µM

SMILES: Cc1ccc2nc(Cl)c(C3C4=C(CC(C)(C)CC4=O)n4c(=O)c5ccccc5c(=O)n43)cc2c1 (stereo not drawn)
- MIC (Pseudomonas aeruginosa [1]): 150 µg/mL (≈ 318 µM)
- MIC (Bacillus subtilis): 158 µg/mL (≈ 334 µM)
- MIC (Staphylococcus aureus): 77.5 µg/mL (≈ 164 µM)
- MIC (Candida albicans [2]): 175 µg/mL (≈ 371 µM)
- IC50 (Candida albicans [3]): 51 µM
- IC50 (Pseudomonas aeruginosa [4]): 46.5 µM

SMILES: Cc1ccc2cc(C3C4=C(CC(C)(C)CC4=O)n4c(=O)c5ccccc5c(=O)n43)c3nnnn3c2c1 (stereo not drawn)
- MIC (Pseudomonas aeruginosa [1]): 102 µg/mL (≈ 213 µM)
- MIC (Bacillus subtilis): 158 µg/mL (≈ 329 µM)
- MIC (Staphylococcus aureus): 112 µg/mL (≈ 234 µM)
- MIC (Candida albicans [2]): 55 µg/mL (≈ 115 µM)
- IC50 (Candida albicans [3]): 67.5 µM
- IC50 (Pseudomonas aeruginosa [4]): 51 µM

SMILES: CC1(C)CC(=O)C2=C(C1)n1c(=O)c3ccccc3c(=O)n1C2c1cc2ccccc2n2nnnc12 (stereo not drawn)
- MIC (Pseudomonas aeruginosa [1]): 68.5 µg/mL (≈ 147 µM)
- MIC (Bacillus subtilis): 100 µg/mL (≈ 215 µM)
- MIC (Staphylococcus aureus): 85 µg/mL (≈ 183 µM)
- MIC (Candida albicans [2]): 112 µg/mL (≈ 242 µM)
- IC50 (Candida albicans [3]): 49.5 µM
- IC50 (Pseudomonas aeruginosa [4]): 66 µM

SMILES: COc1ccc2nc(Cl)c(C3C4=C(CC(C)(C)CC4=O)n4c(=O)c5ccccc5c(=O)n43)cc2c1 (stereo not drawn)
- MIC (Pseudomonas aeruginosa [1]): 205 µg/mL (≈ 420 µM)
- MIC (Bacillus subtilis): 57.5 µg/mL (≈ 118 µM)
- MIC (Staphylococcus aureus): 77.5 µg/mL (≈ 159 µM)
- MIC (Candida albicans [2]): 55 µg/mL (≈ 113 µM)
- IC50 (Candida albicans [3]): 36 µM
- IC50 (Pseudomonas aeruginosa [4]): 73.5 µM

SMILES: CC1(C)CC(=O)C2=C(C1)n1c(=O)c3ccccc3c(=O)n1C2c1cc2ccccc2nc1Cl (stereo not drawn)
- MIC (Pseudomonas aeruginosa [1]): 45 µg/mL (≈ 98.3 µM)
- MIC (Bacillus subtilis): 148 µg/mL (≈ 324 µM)
- MIC (Staphylococcus aureus): 178 µg/mL (≈ 390 µM)
- MIC (Candida albicans [2]): 125 µg/mL (≈ 273 µM)
- IC50 (Candida albicans [3]): 79.5 µM
- inhibition (Pseudomonas aeruginosa [5]): Active
- IC50 (Pseudomonas aeruginosa [4]): 30 µM

SMILES: COc1ccc2cc(C3C4=C(CC(C)(C)CC4=O)n4c(=O)c5ccccc5c(=O)n43)c(Cl)nc2c1 (stereo not drawn)
- MIC (Pseudomonas aeruginosa [1]): 110 µg/mL (≈ 225 µM)
- MIC (Bacillus subtilis): 98.5 µg/mL (≈ 202 µM)
- MIC (Staphylococcus aureus): 102 µg/mL (≈ 209 µM)
- inhibition (Candida albicans [6]): Active
- MIC (Candida albicans [2]): 57.5 µg/mL (≈ 118 µM)
- IC50 (Candida albicans [3]): 34.5 µM
- IC50 (Pseudomonas aeruginosa [4]): 58.5 µM

SMILES: Cc1cccc2cc(C3C4=C(CC(C)(C)CC4=O)n4c(=O)c5ccccc5c(=O)n43)c(Cl)nc12 (stereo not drawn)
- MIC (Pseudomonas aeruginosa [1]): 120 µg/mL (≈ 254 µM)
- MIC (Bacillus subtilis): 142 µg/mL (≈ 302 µM)
- MIC (Staphylococcus aureus): 67.5 µg/mL (≈ 143 µM)
- MIC (Candida albicans [2]): 50 µg/mL (≈ 106 µM)
- IC50 (Candida albicans [3]): 37.5 µM
- IC50 (Pseudomonas aeruginosa [4]): 66 µM

SMILES: Cc1cccc2cc(C3C4=C(CC(C)(C)CC4=O)n4c(=O)c5ccccc5c(=O)n43)c3nnnn3c12 (stereo not drawn)
- MIC (Pseudomonas aeruginosa [1]): 84.5 µg/mL (≈ 177 µM)
- MIC (Bacillus subtilis): 170 µg/mL (≈ 355 µM)
- MIC (Staphylococcus aureus): 91.5 µg/mL (≈ 191 µM)
- MIC (Candida albicans [2]): 175 µg/mL (≈ 366 µM)
- IC50 (Candida albicans [3]): 61.5 µM
- IC50 (Pseudomonas aeruginosa [4]): 61.5 µM

SMILES: OC(Cn1cncn1)(Cn1cncn1)c1ccc(F)cc1F [FLUCONAZOLE]
- MIC (Candida albicans [2]): 50 µg/mL (≈ 163 µM)
- IC50 (Candida albicans [3]): 40 µM

SMILES: O=C(O)c1cn(C2CC2)c2cc(N3CCNCC3)c(F)cc2c1=O [CIPROFLOXACIN]
- MIC (Pseudomonas aeruginosa [1]): 50 µg/mL (≈ 151 µM)
- IC50 (Pseudomonas aeruginosa [4]): 47 µM

SMILES: Cc1ccc2c(c1)cc(C1C3=C(CC(C)(C)CC3=O)n3c(=O)c4ccccc4c(=O)n31)c1nnnn12 (stereo not drawn)
- MIC (Pseudomonas aeruginosa [1]): 67.5 µg/mL (≈ 141 µM)
- MIC (Bacillus subtilis): 158 µg/mL (≈ 329 µM)
- MIC (Staphylococcus aureus): 225 µg/mL (≈ 470 µM)
- MIC (Candida albicans [2]): 67.5 µg/mL (≈ 141 µM)
- IC50 (Candida albicans [3]): 70.5 µM
- IC50 (Pseudomonas aeruginosa [4]): 64.5 µM

SMILES: COc1ccc2c(c1)cc(C1C3=C(CC(C)(C)CC3=O)n3c(=O)c4ccccc4c(=O)n31)c1nnnn12 (stereo not drawn)
- MIC (Pseudomonas aeruginosa [1]): 67.5 µg/mL (≈ 136 µM)
- MIC (Bacillus subtilis): 188 µg/mL (≈ 379 µM)
- MIC (Staphylococcus aureus): 225 µg/mL (≈ 455 µM)
- MIC (Candida albicans [2]): 195 µg/mL (≈ 394 µM)
- IC50 (Candida albicans [3]): 81 µM
- IC50 (Pseudomonas aeruginosa [4]): 46.5 µM
